# Reference: ChEMBL document CHEMBL1201862, “PubChem BioAssay data set” (2004)
#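 Cells were grown in 96-well plates and exposed to each compound for 48 hours at five concentrations; endpoints were interpolated linearly between bracketing concentrations, or set to the highest concentration if not reached. Here, GI50 denotes the concentration required for 50% inhibition of growth.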 The source made the active and inactive calls. Cut-off read from the data, not from the text of the source: active = GI50 up to about 1.1 µM and inactive = higher.
# How the values were obtained:
# Experiment in all cases: NCI tumour cell line growth inhibition, 48 h
# NCI-H522 = tested on: NCI-H522
# U-251 = tested on: U-251
# DMS-273 = tested on: DMS-273
# SK-MEL-2 = tested on: SK-MEL-2
# OVCAR-4 = tested on: OVCAR-4
# SF-268 = tested on: SF-268
# EKVX = tested on: EKVX
# OVCAR-8 = tested on: OVCAR-8
# RPMI-8226 = tested on: RPMI-8226
# HCC 2998 = tested on: HCC 2998
# HCT-15 = tested on: HCT-15
# KM-20L2 = tested on: KM-20L2
# MOLT-4 = tested on: MOLT-4
# HCT-116 = tested on: HCT-116
# SK-MEL-5 = tested on: SK-MEL-5
# A498 = tested on: A498
# UACC-62 = tested on: UACC-62
SMILES,GI50 (NCI-H522),GI50 (U-251),GI50 (DMS-273),GI50 (SK-MEL-2),GI50 (OVCAR-4),GI50 (SF-268),GI50 (EKVX),GI50 (OVCAR-8),GI50 (RPMI-8226),GI50 (HCC 2998),GI50 (HCT-15) [µM],GI50 (KM-20L2),GI50 (MOLT-4),GI50 (HCT-116),GI50 (SK-MEL-5),GI50 (A498),GI50 (UACC-62)
Cc1cnc2ccc(C)c([N+](=O)[O-])c2c1NCCCN(C)C,> 100 µM (inactive),> 100 µM (inactive),> 100 µM (inactive),> 100 µM (inactive),> 100 µM (inactive),> 100 µM (inactive),> 100 µM (inactive),> 100 µM (inactive),> 100 µM (inactive),> 100 µM (inactive),> 100,91.6 µM (inactive),> 100 µM (inactive),74.8 µM (inactive),–,–,–
O=C(c1ccccc1)N1C2CCC1C(C(F)(F)F)=C2C(F)(F)F,> 100 µM (inactive),> 100 µM (inactive),> 100 µM (inactive),–,> 100 µM (inactive),> 100 µM (inactive),> 100 µM (inactive),> 100 µM (inactive),> 100 µM (inactive),> 100 µM (inactive),> 100,> 100 µM (inactive),> 100 µM (inactive),> 100 µM (inactive),> 100 µM (inactive),> 100 µM (inactive),> 100 µM (inactive)
Cc1ccc(Nc2nc(C)c(C(/C=C/c3ccc(/C=C/C(=N/NC(=O)C[n+]4ccccc4)c4sc(Nc5ccc(C)cc5[N+](=O)[O-])nc4C)cc3)=N\NC(=O)C[n+]3ccccc3)s2)c([N+](=O)[O-])c1,> 100 µM (inactive),> 100 µM (inactive),> 100 µM (inactive),> 100 µM (inactive),> 100 µM (inactive),> 100 µM (inactive),78.3 µM (inactive),> 100 µM (inactive),–,> 100 µM (inactive),88.1,> 100 µM (inactive),76.7 µM (inactive),> 100 µM (inactive),–,–,20.6 µM (inactive)
Oc1cc(-c2cccs2)nc2cc3c(cc12)OCO3,2.05 µM (inactive),7.43 µM (inactive),3.34 µM (inactive),4.99 µM (inactive),–,6.43 µM (inactive),> 62.7 µM (inactive),4.66 µM (inactive),6.32 µM (inactive),7.13 µM (inactive),4.23,15.9 µM (inactive),4.52 µM (inactive),4.14 µM (inactive),1.75 µM (inactive),3.17 µM (inactive),2.92 µM (inactive)
COc1ccc2c3c(c(C(=O)O)oc13)C(CCC(=O)O)CC2 (centres undefined),–,> 100 µM (inactive),> 100 µM (inactive),–,> 100 µM (inactive),–,> 100 µM (inactive),> 100 µM (inactive),–,> 100 µM (inactive),> 100,> 100 µM (inactive),–,> 100 µM (inactive),> 100 µM (inactive),> 100 µM (inactive),> 100 µM (inactive)
CCOCc1cc(=O)c2cc3c(cc2o1)OC(C)(C)CC3,> 100 µM (inactive),> 100 µM (inactive),48.5 µM (inactive),> 100 µM (inactive),> 100 µM (inactive),> 100 µM (inactive),> 100 µM (inactive),> 100 µM (inactive),91.4 µM (inactive),> 100 µM (inactive),> 100,> 100 µM (inactive),55.5 µM (inactive),> 100 µM (inactive),56.6 µM (inactive),> 100 µM (inactive),> 100 µM (inactive)
COc1cc([C@@H]2c3cc4c(cc3[C@@H](NCc3ccc(C#N)cc3)C3COC(=O)[C@@H]32)OCO4)cc(OC)c1O (some centres undefined),1.09 µM (active),0.123 µM (active),0.326 µM (active),3.27 µM (inactive),20.8 µM (inactive),1.25 µM (inactive),1.98 µM (inactive),1.2 µM (inactive),0.993 µM (active),1.57 µM (inactive),1.16,1.08 µM (active),0.0512 µM (active),1.19 µM (inactive),1.5 µM (inactive),1.07 µM (active),0.55 µM (active)
CCOC(=O)C1C(=O)c2ccccc2CN1Cc1ccccc1 (centres undefined),> 100 µM (inactive),> 100 µM (inactive),> 100 µM (inactive),> 100 µM (inactive),> 100 µM (inactive),> 100 µM (inactive),> 100 µM (inactive),> 100 µM (inactive),> 100 µM (inactive),> 100 µM (inactive),> 100,> 100 µM (inactive),> 100 µM (inactive),> 100 µM (inactive),> 100 µM (inactive),–,> 100 µM (inactive)
COc1cc(C(=O)N2CCc3c([nH]c4c([N+](=O)[O-])c(OC)ccc34)C2C)cc(OC)c1OC (centres undefined),> 100 µM (inactive),> 100 µM (inactive),> 100 µM (inactive),> 100 µM (inactive),> 100 µM (inactive),29.8 µM (inactive),> 100 µM (inactive),> 100 µM (inactive),> 100 µM (inactive),> 100 µM (inactive),> 100,> 100 µM (inactive),> 100 µM (inactive),> 100 µM (inactive),–,> 100 µM (inactive),20.1 µM (inactive)
CCCCCCCCSC(=O)NCCCC,27.1 µM (inactive),35.5 µM (inactive),35 µM (inactive),17.7 µM (inactive),33.5 µM (inactive),35.8 µM (inactive),27.8 µM (inactive),36.6 µM (inactive),20.3 µM (inactive),–,27.2,23.7 µM (inactive),23.2 µM (inactive),–,22.2 µM (inactive),54.1 µM (inactive),43 µM (inactive)
CCOC(=O)C(=O)Nc1cc(Cl)c(Cl)cc1Cl,> 100 µM (inactive),> 100 µM (inactive),> 100 µM (inactive),> 100 µM (inactive),> 100 µM (inactive),> 100 µM (inactive),> 100 µM (inactive),> 100 µM (inactive),> 100 µM (inactive),> 100 µM (inactive),> 100,> 100 µM (inactive),> 100 µM (inactive),> 100 µM (inactive),> 100 µM (inactive),–,> 100 µM (inactive)
CCc1cc(Cc2cc(CC)c(NC(=O)C(=O)Cc3ccccn3)c(CC)c2Cl)c(Cl)c(CC)c1NC(=O)C(=O)Cc1ccccn1,–,19.4 µM (inactive),> 100 µM (inactive),> 100 µM (inactive),> 100 µM (inactive),> 100 µM (inactive),> 100 µM (inactive),> 100 µM (inactive),> 100 µM (inactive),> 100 µM (inactive),39.4,> 100 µM (inactive),> 100 µM (inactive),> 100 µM (inactive),> 100 µM (inactive),> 100 µM (inactive),> 100 µM (inactive)
NNC(=O)N/N=C1\CN(c2ccc(Cl)cc2Cl)C(=O)C(=O)C1c1nc2ccccc2o1 (centres undefined),> 100 µM (inactive),54.8 µM (inactive),> 100 µM (inactive),> 100 µM (inactive),> 100 µM (inactive),> 100 µM (inactive),> 100 µM (inactive),> 100 µM (inactive),> 100 µM (inactive),> 100 µM (inactive),–,> 100 µM (inactive),> 100 µM (inactive),> 100 µM (inactive),> 100 µM (inactive),> 100 µM (inactive),> 100 µM (inactive)
O=C1Nc2ccccc2Nc2nc3cccccc-3c21,> 100 µM (inactive),> 100 µM (inactive),> 100 µM (inactive),> 100 µM (inactive),> 100 µM (inactive),> 100 µM (inactive),> 100 µM (inactive),> 100 µM (inactive),> 100 µM (inactive),> 100 µM (inactive),> 100,> 100 µM (inactive),–,> 100 µM (inactive),> 100 µM (inactive),–,> 100 µM (inactive)
COc1ccc(OC)c(-c2cc(O)c3cc4c(cc3n2)OCO4)c1,2.85 µM (inactive),7.59 µM (inactive),4.06 µM (inactive),4.1 µM (inactive),35.6 µM (inactive),7.74 µM (inactive),37.4 µM (inactive),9.59 µM (inactive),4.18 µM (inactive),4.67 µM (inactive),4.22,4.14 µM (inactive),6.34 µM (inactive),4.14 µM (inactive),2.98 µM (inactive),–,3.58 µM (inactive)
CS(=O)(=O)OCCn1cnc2nc(NC(=O)c3ccccc3)[nH]c(=O)c21,> 100 µM (inactive),> 100 µM (inactive),> 100 µM (inactive),> 100 µM (inactive),> 100 µM (inactive),> 100 µM (inactive),> 100 µM (inactive),> 100 µM (inactive),> 100 µM (inactive),–,> 100,> 100 µM (inactive),–,> 100 µM (inactive),> 100 µM (inactive),> 100 µM (inactive),> 100 µM (inactive)
COc1ccc(OC)c(NC(=O)CCC/C(CC(=O)c2ccc(O)c(OC)c2)=N\Nc2nnc(C)n2N)c1,> 100 µM (inactive),> 100 µM (inactive),> 100 µM (inactive),> 100 µM (inactive),> 100 µM (inactive),> 100 µM (inactive),> 100 µM (inactive),> 100 µM (inactive),> 100 µM (inactive),> 100 µM (inactive),> 100,> 100 µM (inactive),> 100 µM (inactive),–,> 100 µM (inactive),> 100 µM (inactive),> 100 µM (inactive)
CC1=C(C(=O)Nc2ccc(C)cc2)C(c2cccc([N+](=O)[O-])c2)C(C(=O)Nc2ccc(C)cc2)=C(C)N1,27.4 µM (inactive),20.7 µM (inactive),28.6 µM (inactive),20.8 µM (inactive),12.2 µM (inactive),16.1 µM (inactive),17.1 µM (inactive),40 µM (inactive),–,30.6 µM (inactive),26.2,19.4 µM (inactive),5.55 µM (inactive),35.6 µM (inactive),20.2 µM (inactive),16.4 µM (inactive),13.3 µM (inactive)
